Reference: PubChem BioAssay AID2060488 (Molecular Pharmacology Branch, DTP, NCI, 2025)

System: 966289-007-R4-J1-PDC complex spheroid viability
Test: Anticancer human tumor 966289-007-R4-J1-PDC patient-derived pancreatic adenocarcinoma cell line growth inhibition [GQUAD]
Settings: for IC50: curve of first compound; for viability, T/C: stronger effect = lower value
Description: DNA G-quadruplex Stabilizer Agents in Combinations in Complex Spheroids
A high-throughput screen of multi-cell type tumor spheroids was designed to identify active combinations of DNA G-quadruplex stabilizer agents and targeted small molecules. Complex spheroids include a stromal component modeled by human endothelial cells (HUVEC) and fibroblasts modeled by human mesenchymal stem cells (MSCs). The concentration ranges selected for each drug and investigational agent were based upon clinically achievable concentrations if the clinical Cmax of the agent was known.
Compounds. The drugs and investigational agents: pidnarulex (CX-5461; NSC782164), APTO-253 (NSC789042), BRACO-19 (NSC847499), peposertib (NSC802822), ceralasertib (NSC780249), elimusertib (NSC800525), camonsertib (NSC841442), AZD-1390 (NSC803789), olaparib (NSC753686), talazoparib (NSC767125), ART-558 (NSC835418), sotorasib (NSC818433), MRTX-1133 (NSC836407), SN-38 (NSC673596), topotecan (NSC609699), etoposide (NSC141540), doxorubicin (NSC123127), gemcitabine (NSC613327), 5-fluorouracil (NSC19893), paclitaxel (NSC125973), vemurafenib (NSC761431), panobinostat (NSC761190), R-306465 (JNJ-16241199; NSC773264), adavosertib (NSC754352), TP-3654 (NSC805149), carboplatin (NSC241240), KSQ-4279 (NSC840948), and staurosporine (NSC755774) were obtained from the National Cancer Institute (NCI) Developmental Therapeutics Program Chemical Repository (34). The FDA-approved anticancer drug set is available from the NCI Developmental Therapeutics Program. […] The stock solutions were prepared in dimethyl sulfoxide (DMSO, Sigma-Aldrich, St. Louis, MO, cat. D2650) at 800-fold the tested concentration and stored at -70 degrees C prior to their use. All drugs and investigational agents were tested over a range starting from a high concentration at or near the clinical Cmax and decreasing in half-log increments. If the clinical Cmax for an agent had not been determined, the highest concentration tested was 10 microM.
2.3 Cell Culture. All cells were maintained in an incubator at 37 degrees C and 5% CO2 with 95% humidity. The PDC lines were cultured according to standard operating procedures established by the NCI PDMR. All PDCs were thawed and cultured in Matrigel-coated flasks prepared with a working solution of 1X Ham's F-12 nutrient mix, without supplementation (Invitrogen, cat. 11765054), 100 U/mL penicillin-streptomycin (Invitrogen, cat. 15140122), and 2.5% Matrigel (Corning Inc., cat. 354248) for the first three passages. The 857933-349-R-J2-PDC line was cultured in 6C/Colon 1B media, which includes advanced DMEM/F-12 (Thermo Fisher Scientific, cat. 12634028), 10 mM HEPES (Thermo Fisher Scientific, cat. 15630080), 1X GlutaMAX supplement (Thermo Fisher Scientific, cat. 35050061), 0.1 mg/mL primocin (InvivoGen, cat. ant-pm-2), 10% defined fetal bovine serum, heat inactivated (HyClone Laboratories Inc., cat. SH30070.03HI), 50% L-WRN conditioned media (ATCC, cat. CRL-3276), 1.25 mM N-Acetyl-L-cysteine (Sigma-Aldrich, cat. A9165), 10 mM nicotinamide (Sigma-Aldrich, cat. N0636), 1X B-27 supplement (Thermo Fisher Scientific, cat. 17504044), 1X N-2 supplement (Thermo Fisher Scientific, cat. 17502048), 10 microM Y-27632 dihydrochloride (Tocris Bioscience, cat. 1254), and 50 ng/mL human EGF recombinant protein (Thermo Fisher Scientific, cat. PHG0311). The 485176-168-R4-J1-PDC line was cultured in Panc media, which includes all 6C/Colon 1B media components plus 100 ng/mL human FGF-10 (Thermo Fisher Scientific, cat. 100-26), 500 nM SB-431542 (Selleckchem, cat. S1067), and gastrin (Tocris, cat. 3006).
[…]

[1] = second compound 0.0316 µM, first compound 0.000999 µM
[2] = second compound 0.0316 µM, first compound 0.00316 µM
[3] = second compound 0.0316 µM, first compound 0.00999 µM
[4] = second compound 0.0316 µM, first compound 0.0316 µM
[5] = second compound 0.0316 µM, first compound 0.0999 µM
[6] = second compound 0.0316 µM, first compound 0.316 µM
[7] = second compound 0.1 µM, first compound 0.000999 µM
[8] = second compound 0.1 µM, first compound 0.00316 µM
[9] = second compound 0.1 µM, first compound 0.00999 µM
[10] = second compound 0.1 µM, first compound 0.0316 µM
[11] = second compound 0.1 µM, first compound 0.0999 µM
[12] = second compound 0.1 µM, first compound 0.316 µM
[13] = second compound 0.316 µM, first compound 0.000999 µM
[14] = second compound 0.316 µM, first compound 0.00316 µM
[15] = second compound 0.316 µM, first compound 0.00999 µM
[16] = second compound 0.316 µM, first compound 0.0316 µM
[17] = second compound 0.316 µM, first compound 0.0999 µM
[18] = second compound 0.316 µM, first compound 0.316 µM
[19] = second compound 1 µM, first compound 0.000999 µM
[20] = second compound 1 µM, first compound 0.00316 µM
[21] = second compound 1 µM, first compound 0.00999 µM
[22] = second compound 1 µM, first compound 0.0316 µM
[23] = second compound 1 µM, first compound 0.0999 µM
[24] = second compound 1 µM, first compound 0.316 µM
[25] = second compound 3.16 µM, first compound 0.000999 µM
[26] = second compound 3.16 µM, first compound 0.00316 µM
[27] = second compound 3.16 µM, first compound 0.00999 µM
[28] = second compound 3.16 µM, first compound 0.0316 µM
[29] = second compound 3.16 µM, first compound 0.0999 µM
[30] = second compound 3.16 µM, first compound 0.316 µM
[31] = second compound 10 µM, first compound 0.000999 µM
[32] = second compound 10 µM, first compound 0.00316 µM
[33] = second compound 10 µM, first compound 0.00999 µM
[34] = second compound 10 µM, first compound 0.0316 µM
[35] = second compound 10 µM, first compound 0.0999 µM
[36] = second compound 10 µM, first compound 0.316 µM
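Also: spheroids exposed to the agents for seven days before readout.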
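For viability, T/C in this document: percent viability relative to DMSO vehicle control wells taken as 100%.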

CC[C@@]1(O)C(=O)OCc2c1cc1n(c2=O)Cc2cc3c(CN(C)C)c(O)ccc3nc2-1 + CN(C)c1ccc(Nc2c3ccc(NC(=O)CCN4CCCC4)cc3nc3cc(NC(=O)CCN4CCCC4)ccc23)cc1
IC50 (second compound 0.0316 µM): 49.8 nM | IC50 (second compound 0.1 µM): 50.3 nM | IC50 (second compound 0.316 µM): 48.5 nM | IC50 (second compound 1 µM): 53.3 nM | IC50 (second compound 3.16 µM): 50.7 nM | IC50 (second compound 10 µM): 24.8 nM | viability, T/C [1]: 100% | viability, T/C [2]: 96.9% | viability, T/C [3]: 92.9% | viability, T/C [4]: 82.1% | viability, T/C [5]: 0.84% | viability, T/C [6]: 0.56% | viability, T/C [7]: 102% | viability, T/C [8]: 98% | viability, T/C [9]: 103% | viability, T/C [10]: 83.5% | viability, T/C [11]: 0.82% | viability, T/C [12]: 0.54% | viability, T/C [13]: 101% | viability, T/C [14]: 96.1% | viability, T/C [15]: 107% | viability, T/C [16]: 79% | viability, T/C [17]: 0.87% | viability, T/C [18]: 0.83% | viability, T/C [19]: 92.1% | viability, T/C [20]: 96.5% | viability, T/C [21]: 102% | viability, T/C [22]: 91% | viability, T/C [23]: 0.86% | viability, T/C [24]: 0.61% | viability, T/C [25]: 96.1% | viability, T/C [26]: 98.2% | viability, T/C [27]: 110% | viability, T/C [28]: 84.3% | viability, T/C [29]: 1.25% | viability, T/C [30]: 0.55% | viability, T/C [31]: 104% | viability, T/C [32]: 89.2% | viability, T/C [33]: 110% | viability, T/C [34]: 36.2% | viability, T/C [35]: 0.73% | viability, T/C [36]: 0.68%

CCc1c2c(nc3ccc(O)cc13)-c1cc3c(c(=O)n1C2)COC(=O)[C@]3(O)CC + CN(C)c1ccc(Nc2c3ccc(NC(=O)CCN4CCCC4)cc3nc3cc(NC(=O)CCN4CCCC4)ccc23)cc1
IC50 (second compound 0.0316 µM): < 0.999 nM | IC50 (second compound 0.1 µM): < 0.999 nM | IC50 (second compound 0.316 µM): < 0.999 nM | IC50 (second compound 1 µM): < 0.999 nM | IC50 (second compound 3.16 µM): < 0.999 nM | IC50 (second compound 10 µM): < 0.999 nM | viability, T/C [1]: 21.2% | viability, T/C [2]: 1.29% | viability, T/C [3]: 0.59% | viability, T/C [4]: 0.58% | viability, T/C [5]: 0.44% | viability, T/C [6]: 0.43% | viability, T/C [7]: 22.3% | viability, T/C [8]: 1.11% | viability, T/C [9]: 0.72% | viability, T/C [10]: 1.03% | viability, T/C [11]: 0.43% | viability, T/C [12]: 0.56% | viability, T/C [13]: 18.6% | viability, T/C [14]: 1.04% | viability, T/C [15]: 1.15% | viability, T/C [16]: 0.5% | viability, T/C [17]: 0.36% | viability, T/C [18]: 0.44% | viability, T/C [19]: 22.2% | viability, T/C [20]: 1.12% | viability, T/C [21]: 0.68% | viability, T/C [22]: 0.53% | viability, T/C [23]: 1.55% | viability, T/C [24]: 0.4% | viability, T/C [25]: 17.7% | viability, T/C [26]: 1.42% | viability, T/C [27]: 0.73% | viability, T/C [28]: 0.58% | viability, T/C [29]: 0.38% | viability, T/C [30]: 0.97% | viability, T/C [31]: 9.4% | viability, T/C [32]: 0.87% | viability, T/C [33]: 0.74% | viability, T/C [34]: 0.39% | viability, T/C [35]: 0.62% | viability, T/C [36]: 0.22%
